Data taken from patent US7087809B2, “Natural herbicide resistance in wheat” (Natural Genes, Inc., priority 2003, dated 2006).

Legend:
Assay type in all cases: in vivo, Triticum aestivum
[1] = test system: wheat selections of 'WA7824'/'Zeke' pedigree; test: Glyphosate herbicide treatment of selections grown in greenhouse flats (after field head row treatment); settings: 1.2 percent by weight aqueous solution sprayed at three-leaf stage; for Number Killed by Glyphosate Herbicide Treatment / Number of Survivors of Glyphosate Herbicide Treatment: greenhouse flats
Description: The wheat seedlings arising from the germination of this planting were allowed to establish and grow to the three-leaf stage. At this stage of growth glyphosate herbicide was applied to the plants at a rate of 32 oz. per Acre. Survivors of this treatment were allowed to mature, to undergo self-pollination, and the heads from each plant were tagged, removed, and placed in individual containers to ensure a record of continuous lineage from the plants used in the increase (i.e., W2-1-h10-p1-la through 6a and W2-4-h9-p1-la through 10a). Seeds from each head removed from the surviving plants that were exposed to glyphosate herbicide in the field head row plots next were planted in flats in the greenhouse for germination and seedling establishment. The seeds from each head were planted in separate flats to maintain the integrity of each line. At the three-leaf stage, the resulting seedlings were sprayed with an aqueous 1.2 percent by weight solution of glyphosate herbicide. Surviving plants were allowed to grow to maturity, to undergo self-pollination, and to produce heads and seeds. This was done to ensure that the survivors of the glyphosate herbicide treatment also remained fertile and produced viable seeds.

[2] = test system: hard red spring wheat populations (W1 through W15); test: Soaking of wheat seeds in glyphosate herbicide solution, planting in herbicide-treated growing medium, count of surviving plants; settings: for Surviving plants after seed treatment: seed soaking and planting; for Number of Surviving Wheat Plants: approx. 5,000 seeds
Method: Preferably the wheat seeds are soaked in an aqueous solution of the herbicide. Commonly the herbicide is present in the solution in a concentration of approximately 1.5 to 6 percent by weight, and most preferably in a concentration of approximately 2 percent by weight. Commonly the wheat seeds are simply immersed in the liquid comprising the herbicide. The soaking of wheat seeds is conducted for a period of time that is sufficient for the herbicide to reach the embryos of the wheat seeds. […] The liquid comprising the herbicide can be simply provided at room temperature when the wheat seeds are in contact with the liquid and are undergoing such soaking.
Alternatively, such screening of the resulting wheat plants for herbicide resistance can include the presence of the herbicide in the growing medium where the resulting seeds are planted. Good results are obtained in a preferred embodiment when one gallon of a solution containing the herbicide in a concentration of approximately 1.5 to 6 percent by weight is added to each 4 gallons of soil. The presence of the herbicide in the soil helps to assure that an atypical wheat seed having a harder seed coat has not given a false indication of herbicide resistance by its survival up to the point of germination.
Some varieties have produced no surviving plants in tests to date. Some varieties have produced up to approximately 4 surviving plant per 5,000 seeds, others approximately 1 surviving plant per 5,000 seeds. The herbicide resistance of the resulting plants can be further confirmed by another contact (e.g., spraying) with the glyphosate herbicide.
Fifteen different known and publically available hard red spring wheat populations (W1 through W15) were chosen for evaluation and screening in accordance with the process of the present invention. Each of the starting materials was believed to lack herbicide resistance that is attributable to genetic engineering. Also, each population, as all other Triticum aestivium varieties, was regarded to be highly sensitive to glyphosate herbicide during previous observations.
Individual batches of each wheat population were initially immersed and were soaked in 2 percent aqueous solutions of glyphosate herbicide that were present at room temperature. The wheat seeds were provided in contact with the glyphosate herbicide for a period of 6 hours during which time the glyphosate herbicide reached the embryos of the seeds.
Each wheat seed population was labeled and next was planted in a 50/50 sandy-loam top soil/peat growing medium. The wheat seeds were present in flats containing the growing medium at a depth of approximately 2 inches. The same 2 percent by weight aqueous solutions of glyphosate herbicide were poured into each growing medium containing the wheat seeds.
The flats containing the wheat seeds next were placed in a greenhouse under ambient conditions in an effort to achieve germination. The sandy-loam top soil/peat growing medium was periodically watered in an effort to achieve near field growing conditions except for the presence of glyphosate herbicide.
Of those that did germinate some died within the first 2 days, and only 6 of the 15 wheat populations produced any plants following the soaking in the glyphosate herbicide as reported in Table I. These 6 populations were W1 to W5 and W15. Each plant was carefully preserved and tagged in order to preserve the lineage for those that survived the exposure to the glyphosate herbicide at the seed stage.

[3] = test system: wheat plants of the 64 flats (progeny of surviving plants); test: Spraying of progeny seedlings of surviving plants with glyphosate herbicide at the three-leaf stage in the greenhouse; settings: 1.2 percent aqueous solution sprayed at three-leaf stage
Description: Fifteen seeds from each head of each surviving plant were next planted in 64 individual flats in a greenhouse containing a like 50/50 sandy-loam top soil/peat growing medium. A designation system was adopted which began with the initial Wheat Population Designation (e.g., W1) next followed by the plant number (e.g., −1, −2 for W1), and finally followed by the head number (e.g., h1). The wheat plants of the 64 flats were identified as follows:
The seeds were encouraged to germinate and wheat plants emerged. At the three-leaf stage a 1.2 percent aqueous solution of glyphosate herbicide was applied to the plants by spraying. […] Remnant seeds from these 2 plants taken from heads W2-1-h10 and W2-4-h9 were planted in the greenhouse, germinated, and underwent self-pollination to increase the seeds. Plants derived from these seeds were not subjected to the glyphosate herbicide in an effort to maximize yield and to establish a germplasm base for further testing. W2-1-h10 produced six healthy plants that were designated W2-1-h10-p1-1a through -6a. The “a” designation served to specify that the generation was not treated with glyphosate herbicide. Similarly, W2-4-h9 produced 10 plants that were designated W2-4-h9-p1-1a through 10a. All plants were allowed to mature, to undergo self-pollination, and to produce seed heads. Each head was tagged to maintain a clear record of lineage. […]

O=C(O)CNCP(=O)(O)O [glyphosate herbicide, N-(phosphonomethyl)glycine]
Tolerance of plants of the selections to the herbicide ([1]; all selections from field head rows): All selections generated plants that were tolerant to the herbicide | Number Killed by Glyphosate Herbicide Treatment ([1]; selection W2-1-h10-p16a-h2-h1): 0 | Number of Survivors of Glyphosate Herbicide Treatment ([1]; selection W2-1-h10-p16a-h2-h1): 10 | Number Killed by Glyphosate Herbicide Treatment ([1]; selection W2-1-h10-p16a-h2-h5): 0 | Number of Survivors of Glyphosate Herbicide Treatment ([1]; selection W2-1-h10-p16a-h2-h5): 15 | Number Killed by Glyphosate Herbicide Treatment ([1]; selection W2-4-h9-p13a-h2-h17): 0 | Number of Survivors of Glyphosate Herbicide Treatment ([1]; selection W2-4-h9-p13a-h2-h17): 3 | Number Killed by Glyphosate Herbicide Treatment ([1]; selection W2-4-h9-p13a-h2-h18): 0 | Number of Survivors of Glyphosate Herbicide Treatment ([1]; selection W2-4-h9-p13a-h2-h18): 5 | Germination of glyphosate herbicide-treated seeds ([2]; approx. 75,000 seeds of 15 populations, 2 percent aqueous glyphosate, 6 hours soak, observed 10 to 15 days): failed to germinate | Surviving plants after seed treatment ([2]; other varieties): approximately 1 surviving plant per 5,000 seeds | Number of wheat populations (of 15) that produced any plants following the soaking ([2]; populations W1 through W15, 2 percent aqueous glyphosate, 6 hours soak): 6 | Surviving plants after seed treatment ([2]; some varieties): ≤ 4 surviving plant per 5,000 seeds | Number of Surviving Wheat Plants ([2]; wheat population W1 ('ID377'/'WestBred 926'), 2 percent aqueous glyphosate, 6 hours soak, same solution in growing medium): 4 | Number of Surviving Wheat Plants ([2]; wheat population W2 ('WA7824'/'Zeke'), 2 percent aqueous glyphosate, 6 hours soak, same solution in growing medium): 5 | Number of Surviving Wheat Plants ([2]; wheat population W3 ('SLW97606'/'WestBred 926'), 2 percent aqueous glyphosate, 6 hours soak): 1 | Number of Surviving Wheat Plants ([2]; wheat population W4 ('SLW97606'/'WestBred 936'), 2 percent aqueous glyphosate, 6 hours soak): 2 | Number of Surviving Wheat Plants ([2]; wheat population W5 ('SLW97606'/'Zeke'), 2 percent aqueous glyphosate, 6 hours soak): 1 | Number of Surviving Wheat Plants ([2]; wheat population W6 ('BZ692-108b'/'Calorwa'), 2 percent aqueous glyphosate, 6 hours soak): 0 | Number of Surviving Wheat Plants ([2]; wheat population W7 ('BZ966-472w'/'Pristine'), 2 percent aqueous glyphosate, 6 hours soak): 0 | Number of Surviving Wheat Plants ([2]; wheat population W8 ('Hank'/'BZ994-484'), 2 percent aqueous glyphosate, 6 hours soak): 0 | Number of Surviving Wheat Plants ([2]; wheat population W9 ('MT9959'/'Hank'), 2 percent aqueous glyphosate, 6 hours soak): 0 | Number of Surviving Wheat Plants ([2]; wheat population W10 ('McNeal'/'Parshall'), 2 percent aqueous glyphosate, 6 hours soak): 0 | Number of Surviving Wheat Plants ([2]; wheat population W11 ('Reeder'/'Conan'), 2 percent aqueous glyphosate, 6 hours soak): 0 | Number of Surviving Wheat Plants ([2]; wheat population W12 ('WA7899'/'Jefferson'), 2 percent aqueous glyphosate, 6 hours soak): 0 | Number of Surviving Wheat Plants ([2]; wheat population W13 ('Alpowa'/'Zak'), 2 percent aqueous glyphosate, 6 hours soak): 0 | Number of Surviving Wheat Plants ([2]; wheat population W14 ('Vanna'/'Zak'), 2 percent aqueous glyphosate, 6 hours soak): 0 | Number of Surviving Wheat Plants ([2]; wheat population W15 ('Zak'/'BZ698-41'), 2 percent aqueous glyphosate, 6 hours soak): 4 | Seedlings surviving the application of glyphosate herbicide ([3]; seedlings derived from W1-2): single seedling | Seedlings surviving the application of glyphosate herbicide ([3]; seedlings derived from W2-4): single seedling
